The values below come from publication PMC10113987, “A tool for nuclear imaging of the SARS-CoV-2 entry receptor: molecular model and preclinical development of ACE2-selective radiopeptides” (EJNMMI Research, 2023).

In general, Kd refers to a measure of binding affinity in units of concentration. High values mean lower affinity, low ones higher affinity.

Series [1] in a line: Blood plasma protein binding, human plasma (ultrafiltration). The class given is in vitro ADME. The following applies: human, plasma, 30 min, 37 °C, read-out: Fraction bound to blood plasma proteins. How it is done:
(§1) The radiopeptides (0.3 MBq; 15 pmol) were incubated in human or murine blood plasma (150 μL) for 30 min at 37 °C followed by cooling on ice, addition of ice-cold PBS (150 μL) and transfer of the samples to amicon filter devices (Amicon Ultra, 0.5 mL, Merck Millipore; cutoff 10 kDa). The filter ensured the retention of the radiopeptides bound to mouse plasma proteins or human plasma proteins during filtration (14,000 rcf, 30 min at 4 °C). Afterward, the filter inserts were inverted and centrifuged again (200 rcf, 3 min) to recover the protein-bound fraction of the radiopeptides. The activities of the free radiopeptides in the filtrate, as well as in the filter insert and the plasma protein-bound radiopeptides (Abound), were counted for activity separately in a γ-counter. The total activity (Atotal) was determined as the sum of the activities in the filtrate, filter insert, and protein-bound fractions. The percentage of radiopeptide bound to mouse serum albumin (MSA) and human serum albumin (HSA) was calculated as Abound/Atotal*100. The results were presented as average ± SD of three independent experiments (Additional file 1).
(§2) Methods: The detailed methods are reported in the main article. Control experiments were performed by incubation of the respective radiopeptides in phosphate-buffered saline (PBS) instead of blood plasma, followed by ultracentrifugation using Amicon filters.

The test system of series [2] is human blood plasma proteins. The series is described as above. The following applies: 30 min, 37 °C. It counts as in vitro ADME. How it is done: as §1, §2
A short description of series [3]: Blood plasma protein binding, mouse plasma (ultrafiltration). The settings on record: mouse, plasma, 30 min, 37 °C, read-out: Fraction bound to blood plasma proteins (converted). It counts as in vitro ADME. As for the experimental part: as §1, §2
Series [4] relates to mouse blood plasma proteins. The description is as above. It counts as in vitro ADME. The following applies: 30 min, 37 °C. As for the experimental part:
as §1, §2

Another series deals with T1, ACE (Homo sapiens, UniProt P12821).
T1 construct: host or cells: HEK-293
T1 sequence (P12821 30-1306): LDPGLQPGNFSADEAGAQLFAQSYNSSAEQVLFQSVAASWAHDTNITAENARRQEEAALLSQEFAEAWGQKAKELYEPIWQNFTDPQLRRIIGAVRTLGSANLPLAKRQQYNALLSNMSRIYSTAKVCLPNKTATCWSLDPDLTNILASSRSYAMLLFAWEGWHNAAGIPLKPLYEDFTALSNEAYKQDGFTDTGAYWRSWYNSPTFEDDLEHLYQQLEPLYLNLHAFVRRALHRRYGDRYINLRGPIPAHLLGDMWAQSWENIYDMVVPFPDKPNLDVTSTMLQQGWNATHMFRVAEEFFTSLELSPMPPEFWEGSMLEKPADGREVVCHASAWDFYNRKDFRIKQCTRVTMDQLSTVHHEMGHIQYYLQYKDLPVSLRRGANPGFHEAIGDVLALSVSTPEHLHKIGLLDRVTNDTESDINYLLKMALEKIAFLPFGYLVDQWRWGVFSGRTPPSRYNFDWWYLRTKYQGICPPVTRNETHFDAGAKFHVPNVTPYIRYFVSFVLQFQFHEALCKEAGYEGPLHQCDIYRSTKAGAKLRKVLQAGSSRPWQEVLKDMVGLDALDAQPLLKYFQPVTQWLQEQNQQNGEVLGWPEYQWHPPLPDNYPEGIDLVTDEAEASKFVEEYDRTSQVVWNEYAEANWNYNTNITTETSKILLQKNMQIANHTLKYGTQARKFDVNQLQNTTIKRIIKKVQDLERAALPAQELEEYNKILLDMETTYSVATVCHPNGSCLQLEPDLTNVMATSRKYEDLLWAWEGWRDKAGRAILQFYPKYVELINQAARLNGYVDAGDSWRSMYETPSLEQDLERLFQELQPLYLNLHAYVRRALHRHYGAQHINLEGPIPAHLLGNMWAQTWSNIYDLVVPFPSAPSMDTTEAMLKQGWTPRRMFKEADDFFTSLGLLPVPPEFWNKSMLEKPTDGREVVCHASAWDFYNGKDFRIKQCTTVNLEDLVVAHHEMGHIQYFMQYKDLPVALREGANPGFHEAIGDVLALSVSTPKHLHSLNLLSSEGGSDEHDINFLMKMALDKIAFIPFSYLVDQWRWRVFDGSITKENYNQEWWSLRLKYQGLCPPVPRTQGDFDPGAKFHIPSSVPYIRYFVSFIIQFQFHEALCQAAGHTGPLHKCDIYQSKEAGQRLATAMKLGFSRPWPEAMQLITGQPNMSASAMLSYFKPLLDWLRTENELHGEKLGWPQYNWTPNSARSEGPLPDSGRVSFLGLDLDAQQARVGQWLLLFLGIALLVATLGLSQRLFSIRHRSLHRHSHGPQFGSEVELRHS
The series is described as follows: ACE-binding affinity (saturation binding on HEK-ACE cells). The settings on record: on ice, 1 h. How it is done: In order to determine the KD values of the DX600-based radiopeptides and [^67Ga]Ga-DOTA-BPP9a, HEK-ACE2 and HEK-ACE cells were seeded in 48-well-plates allowing adhesion and growth overnight. The cell samples were incubated with increasing concentrations (1‒2000 nM) of the radiopeptides (5 MBq/nmol) on ice. Some of the cell samples were co-incubated with an excess of cyclo-DX600 or lisinopril (20 µM, 10 nmol) to block ACE2 or ACE, respectively, enabling the determination of non-specific binding (Additional file 1). After 1 h incubation, the cells were rinsed with PBS and lysed with NaOH (1 M, 600 µL) to count the activity in a γ-counter. The KD values were determined by plotting specific binding (total binding minus unspecific binding) against the molar concentration of the added radiopeptide. A nonlinear regression analysis was performed using GraphPad Prism software (version 8.3.1).

Residues, ends and D or L forms follow the SMILES beside them. *: point of attachment. DOTA = O=C(O)CN1CCN(CC(=O)O)CCN(CC(=O)*)CCN(CC(=O)O)CC1; Ahx = NCCCCCC(=O)O

For `CC[C@H](C)[C@H](NC(=O)[C@H](CCC(N)=O)NC(=O)[C@@H]1CCCN1C(=O)[C@H](CCCNC(=N)N)NC(=O)[C@@H]1CCCN1C(=O)[C@H](Cc1c[nH]c2ccccc12)NC(=O)[C@H](CCC(=O)O)NC(=O)CCCCCNC(=O)CCCCCNC(=O)CN1CCN(CC(=O)O)CCN(CC(=O)O)CCN(CC(=O)O)CC1)C(=O)N1CCC[C@H]1C(=O)N1CCC[C@H]1C(=O)O` [[^67Ga]Ga-DOTA-BPP9a, metal not drawn] ({DOTA-Ahx-Ahx}-EWPRPQIPP-OH), the fraction unbound in series [1] is 0.5; in series [3], 0.47. Further, the results for the “Fraction bound to blood plasma proteins” value in series [2] and in series [4] were ~ 49% and ~ 53%, respectively. For the same compound, the affinity on ACE, expressed as Kd, was 693 ± 354 nM.
